Drawing on ChEMBL document CHEMBL1909046, “DrugMatrix in vitro pharmacology data”, this text covers IC50 and Ki for eight compounds.

What is called IC50 is the point on the concentration scale where inhibition reaches its midpoint. Usually Ki stands for a measure of affinity in units of concentration, obtained from inhibition or displacement.

The target in test [1] is Beta-1 adrenergic receptor (Homo sapiens, UniProt P08588). As to the kind of experiment: DRUGMATRIX: Adrenergic beta1 radioligand binding (ligand: [125I] Cyanopindolol). In kind it is cell membranes, CHO-K1, Membrane. Conditions: cho-k1; Not Active = under 50% inhibition at 10 µM.
Sequence of Beta-1 adrenergic receptor (P08588 whole entry): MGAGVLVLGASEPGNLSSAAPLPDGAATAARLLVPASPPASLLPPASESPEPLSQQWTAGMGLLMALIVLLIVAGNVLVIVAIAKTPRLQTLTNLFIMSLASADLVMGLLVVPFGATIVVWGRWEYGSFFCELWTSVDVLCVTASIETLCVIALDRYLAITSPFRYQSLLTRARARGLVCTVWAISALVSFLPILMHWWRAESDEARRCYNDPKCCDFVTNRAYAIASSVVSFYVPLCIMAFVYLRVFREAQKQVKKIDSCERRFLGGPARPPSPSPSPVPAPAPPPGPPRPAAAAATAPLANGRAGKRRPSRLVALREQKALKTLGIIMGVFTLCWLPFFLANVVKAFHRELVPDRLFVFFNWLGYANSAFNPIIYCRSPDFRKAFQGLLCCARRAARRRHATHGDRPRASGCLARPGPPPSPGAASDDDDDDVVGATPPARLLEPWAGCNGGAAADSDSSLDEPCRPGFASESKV
For test [2], the target named is T1, Interstitial collagenase (Homo sapiens, UniProt P03956).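 Also: MMP-1 enzyme inhibition assay using a peptide substrate; in other assays of this panel Not Active means under 50% inhibition at 10 µM.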
T1 sequence (P03956 whole entry): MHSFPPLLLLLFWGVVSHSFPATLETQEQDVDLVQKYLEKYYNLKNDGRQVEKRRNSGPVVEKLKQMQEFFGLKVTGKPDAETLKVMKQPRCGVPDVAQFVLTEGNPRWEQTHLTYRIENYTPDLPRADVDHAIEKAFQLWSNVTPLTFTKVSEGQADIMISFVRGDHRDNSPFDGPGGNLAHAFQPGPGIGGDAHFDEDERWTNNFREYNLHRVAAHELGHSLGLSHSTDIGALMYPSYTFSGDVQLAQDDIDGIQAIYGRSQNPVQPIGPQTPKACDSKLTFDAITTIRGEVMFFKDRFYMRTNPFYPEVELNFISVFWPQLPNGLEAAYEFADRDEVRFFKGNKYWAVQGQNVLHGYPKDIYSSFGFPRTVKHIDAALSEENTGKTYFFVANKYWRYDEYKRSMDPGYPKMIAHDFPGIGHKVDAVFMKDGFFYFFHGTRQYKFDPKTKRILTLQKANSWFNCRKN
In kind it is tissue-based, Rheumatoid synovial fibroblasts.

In test [3] the target is Glycine receptor (Rattus norvegicus, UniProt P22771+P24524+P07727+P20781). Format: cell membranes, Wistar, Spinal cord, Membrane. Also: in other assays of this panel Not Active means under 50% inhibition at 10 µM.
For test [4], the target named is Receptor tyrosine-protein kinase erbB-2 (Homo sapiens, UniProt P04626). In words: biochemical. In kind it is cell-based, Insect cells. Conditions: insect cells.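 Also: inhibition of HER2 kinase enzyme activity, measured with Poly(Glu:Tyr) as the phosphorylation substrate; in other assays of this panel Not Active means under 50% inhibition at 10 µM.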
Sequence of Receptor tyrosine-protein kinase erbB-2 (P04626 whole entry): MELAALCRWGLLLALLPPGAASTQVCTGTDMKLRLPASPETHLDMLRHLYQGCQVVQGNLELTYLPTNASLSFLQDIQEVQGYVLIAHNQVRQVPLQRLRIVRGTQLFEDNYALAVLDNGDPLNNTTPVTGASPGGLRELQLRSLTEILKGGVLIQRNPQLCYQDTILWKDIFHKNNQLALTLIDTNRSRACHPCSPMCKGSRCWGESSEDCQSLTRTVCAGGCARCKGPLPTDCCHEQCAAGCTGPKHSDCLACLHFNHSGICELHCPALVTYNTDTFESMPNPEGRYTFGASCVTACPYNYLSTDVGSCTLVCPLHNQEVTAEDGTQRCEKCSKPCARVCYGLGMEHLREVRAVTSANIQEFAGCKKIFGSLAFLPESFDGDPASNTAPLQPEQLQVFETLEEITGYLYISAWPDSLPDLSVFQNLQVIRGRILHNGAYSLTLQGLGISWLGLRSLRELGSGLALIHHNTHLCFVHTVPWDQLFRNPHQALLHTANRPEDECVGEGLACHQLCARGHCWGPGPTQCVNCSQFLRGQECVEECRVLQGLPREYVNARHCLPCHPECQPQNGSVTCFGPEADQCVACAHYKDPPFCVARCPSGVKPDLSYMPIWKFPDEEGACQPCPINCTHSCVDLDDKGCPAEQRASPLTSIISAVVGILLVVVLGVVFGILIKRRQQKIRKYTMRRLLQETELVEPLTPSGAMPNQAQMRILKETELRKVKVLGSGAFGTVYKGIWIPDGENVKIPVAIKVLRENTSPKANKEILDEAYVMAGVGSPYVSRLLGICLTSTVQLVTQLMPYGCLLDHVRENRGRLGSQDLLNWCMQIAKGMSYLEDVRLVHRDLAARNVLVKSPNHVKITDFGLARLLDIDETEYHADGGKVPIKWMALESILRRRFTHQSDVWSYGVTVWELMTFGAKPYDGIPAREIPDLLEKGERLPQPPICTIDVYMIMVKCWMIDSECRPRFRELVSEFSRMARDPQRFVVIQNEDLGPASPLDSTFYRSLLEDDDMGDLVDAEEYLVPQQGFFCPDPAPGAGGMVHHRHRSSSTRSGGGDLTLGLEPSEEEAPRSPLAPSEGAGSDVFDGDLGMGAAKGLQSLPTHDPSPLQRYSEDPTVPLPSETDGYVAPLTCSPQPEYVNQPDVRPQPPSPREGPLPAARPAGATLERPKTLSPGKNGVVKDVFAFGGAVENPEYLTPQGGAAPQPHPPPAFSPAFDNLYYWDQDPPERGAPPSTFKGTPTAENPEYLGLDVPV
For test [5], the target named is Epidermal growth factor receptor (Homo sapiens, UniProt P00533). As to the kind of experiment: DRUGMATRIX: Protein Tyrosine Kinase, EGF Receptor enzyme inhibition (substrate: Poly(Glu:Tyr)). In kind it is cell-based, Insect cells. Conditions: insect cells; Not Active = under 50% inhibition at 10 µM.
Sequence of Epidermal growth factor receptor (P00533 whole entry): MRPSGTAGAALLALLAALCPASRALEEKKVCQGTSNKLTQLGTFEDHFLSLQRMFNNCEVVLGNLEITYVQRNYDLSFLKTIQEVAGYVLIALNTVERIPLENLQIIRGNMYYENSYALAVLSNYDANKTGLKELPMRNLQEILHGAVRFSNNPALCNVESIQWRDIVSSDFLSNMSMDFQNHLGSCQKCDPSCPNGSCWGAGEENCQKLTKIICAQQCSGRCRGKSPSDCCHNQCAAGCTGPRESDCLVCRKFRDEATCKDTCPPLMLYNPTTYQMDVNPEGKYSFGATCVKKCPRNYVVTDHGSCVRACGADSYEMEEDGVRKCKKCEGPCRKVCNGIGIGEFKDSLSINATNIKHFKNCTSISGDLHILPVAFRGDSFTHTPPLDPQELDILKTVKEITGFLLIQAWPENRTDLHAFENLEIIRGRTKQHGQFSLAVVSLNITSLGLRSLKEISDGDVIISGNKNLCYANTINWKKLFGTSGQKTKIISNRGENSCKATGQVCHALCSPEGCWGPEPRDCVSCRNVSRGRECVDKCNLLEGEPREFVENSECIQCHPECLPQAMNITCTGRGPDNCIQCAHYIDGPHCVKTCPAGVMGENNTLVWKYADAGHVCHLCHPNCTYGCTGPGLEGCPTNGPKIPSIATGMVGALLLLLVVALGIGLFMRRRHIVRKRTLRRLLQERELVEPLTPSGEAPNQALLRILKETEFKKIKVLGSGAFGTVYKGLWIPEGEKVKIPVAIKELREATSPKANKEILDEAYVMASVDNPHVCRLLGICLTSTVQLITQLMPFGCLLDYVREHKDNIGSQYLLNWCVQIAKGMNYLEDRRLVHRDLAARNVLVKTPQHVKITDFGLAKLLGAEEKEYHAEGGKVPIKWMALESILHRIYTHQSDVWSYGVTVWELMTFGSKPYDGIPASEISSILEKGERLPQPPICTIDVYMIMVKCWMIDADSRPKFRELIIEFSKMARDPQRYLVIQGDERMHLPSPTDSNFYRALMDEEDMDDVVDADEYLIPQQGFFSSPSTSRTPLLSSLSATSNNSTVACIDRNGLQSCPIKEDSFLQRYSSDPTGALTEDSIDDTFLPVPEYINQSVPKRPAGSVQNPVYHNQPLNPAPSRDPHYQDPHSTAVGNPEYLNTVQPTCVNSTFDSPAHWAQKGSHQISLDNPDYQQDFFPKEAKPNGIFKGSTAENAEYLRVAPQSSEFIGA
Test [6] is described as follows: DRUGMATRIX: Interleukin IL-1 radioligand binding (ligand: [125I] interleukin 1beta). Format: cell membranes, Membrane. Conditions: nih3t3; Not Active = under 50% inhibition at 10 µM.
The target of test [7] is T2, Nitric oxide synthase, inducible (Mus musculus, UniProt P29477).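 Also: inhibition of iNOS enzyme activity measured with L-arginine as substrate; in other assays of this panel Not Active means under 50% inhibition at 10 µM.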
T2 sequence (P29477 whole entry): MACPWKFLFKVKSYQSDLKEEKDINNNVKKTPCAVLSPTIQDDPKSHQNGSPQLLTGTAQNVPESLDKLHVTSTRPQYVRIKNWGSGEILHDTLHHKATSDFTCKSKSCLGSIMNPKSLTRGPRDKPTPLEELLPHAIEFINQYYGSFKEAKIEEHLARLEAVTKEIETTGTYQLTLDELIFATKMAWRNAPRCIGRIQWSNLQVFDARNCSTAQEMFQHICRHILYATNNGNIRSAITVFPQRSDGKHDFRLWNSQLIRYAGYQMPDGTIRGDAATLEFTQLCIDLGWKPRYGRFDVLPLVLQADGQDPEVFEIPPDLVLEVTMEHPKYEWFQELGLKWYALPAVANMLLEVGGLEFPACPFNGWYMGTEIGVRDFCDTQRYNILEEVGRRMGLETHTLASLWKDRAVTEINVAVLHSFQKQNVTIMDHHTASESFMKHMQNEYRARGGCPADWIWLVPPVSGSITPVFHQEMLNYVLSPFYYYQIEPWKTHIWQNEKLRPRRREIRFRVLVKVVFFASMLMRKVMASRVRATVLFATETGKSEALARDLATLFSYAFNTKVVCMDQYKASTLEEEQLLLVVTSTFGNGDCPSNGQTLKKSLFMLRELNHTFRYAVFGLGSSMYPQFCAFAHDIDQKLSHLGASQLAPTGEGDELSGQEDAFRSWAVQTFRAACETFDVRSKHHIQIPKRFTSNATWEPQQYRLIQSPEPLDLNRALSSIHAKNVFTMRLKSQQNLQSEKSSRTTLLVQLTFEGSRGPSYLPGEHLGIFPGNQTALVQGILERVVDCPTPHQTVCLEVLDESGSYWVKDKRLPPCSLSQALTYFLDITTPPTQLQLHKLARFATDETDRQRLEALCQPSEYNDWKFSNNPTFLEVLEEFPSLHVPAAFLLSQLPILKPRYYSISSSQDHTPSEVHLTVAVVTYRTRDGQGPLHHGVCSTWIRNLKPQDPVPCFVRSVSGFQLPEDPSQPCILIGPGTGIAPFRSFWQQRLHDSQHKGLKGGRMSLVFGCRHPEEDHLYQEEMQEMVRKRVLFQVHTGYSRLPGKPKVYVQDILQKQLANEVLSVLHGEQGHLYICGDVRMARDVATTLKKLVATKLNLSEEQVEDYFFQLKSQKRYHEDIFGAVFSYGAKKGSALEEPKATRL
Also on record: species or system Escherichia coli.

Test [8] has as its target Prostaglandin G/H synthase 1 (Homo sapiens, UniProt P23219). In words: biochemical. Conditions: platelet. Format: tissue-based, Platelet.
Test [9] has as its target Delta-type opioid receptor (Homo sapiens, UniProt P41143). In kind it is cell membranes, HEK293, Membrane. Conditions: hek293. Also: in other assays of this panel Not Active means under 50% inhibition at 10 µM.
In test [10] the target is 5-hydroxytryptamine receptor 2B (Homo sapiens, UniProt P41595). Format: cell membranes, CHO-K1, Membrane. Also: in other assays of this panel Not Active means under 50% inhibition at 10 µM.
Sequence of 5-hydroxytryptamine receptor 2B (P41595 whole entry): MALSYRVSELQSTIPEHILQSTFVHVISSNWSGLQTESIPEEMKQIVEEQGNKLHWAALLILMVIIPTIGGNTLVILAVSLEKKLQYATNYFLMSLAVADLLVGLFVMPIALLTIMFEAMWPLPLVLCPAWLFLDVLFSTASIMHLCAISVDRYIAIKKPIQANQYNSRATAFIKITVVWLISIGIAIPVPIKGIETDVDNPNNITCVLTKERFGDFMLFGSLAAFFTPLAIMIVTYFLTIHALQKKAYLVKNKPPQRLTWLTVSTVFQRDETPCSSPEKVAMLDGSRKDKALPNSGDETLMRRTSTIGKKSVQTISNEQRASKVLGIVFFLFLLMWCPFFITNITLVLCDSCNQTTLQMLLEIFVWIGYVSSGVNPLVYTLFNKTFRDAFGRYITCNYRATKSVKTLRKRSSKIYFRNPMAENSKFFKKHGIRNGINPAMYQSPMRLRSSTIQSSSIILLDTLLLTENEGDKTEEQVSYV
Test [11] has as its target T3, Alpha-1A adrenergic receptor (Rattus norvegicus, UniProt P43140).
T3 sequence (P43140 whole entry): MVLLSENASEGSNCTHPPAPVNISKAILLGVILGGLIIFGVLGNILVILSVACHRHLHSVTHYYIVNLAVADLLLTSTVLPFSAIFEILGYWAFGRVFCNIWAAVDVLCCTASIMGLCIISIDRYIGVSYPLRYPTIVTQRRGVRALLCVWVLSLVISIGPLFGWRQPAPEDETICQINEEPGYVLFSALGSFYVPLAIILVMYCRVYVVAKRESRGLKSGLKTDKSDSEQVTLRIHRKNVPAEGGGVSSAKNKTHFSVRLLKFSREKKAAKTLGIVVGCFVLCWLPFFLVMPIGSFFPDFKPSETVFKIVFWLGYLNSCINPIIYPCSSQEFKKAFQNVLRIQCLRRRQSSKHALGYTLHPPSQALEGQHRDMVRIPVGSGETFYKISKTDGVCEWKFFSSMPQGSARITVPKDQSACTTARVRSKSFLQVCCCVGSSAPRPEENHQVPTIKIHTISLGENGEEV
As to the kind of experiment: DRUGMATRIX: Alpha-1A adrenergic receptor radioligand binding (ligand: prazosin). Format: cell membranes, Wistar, Submaxillary gland, Membrane. As to conditions: Not Active = under 50% inhibition at 10 µM.

Sequence of Delta-type opioid receptor (P41143 whole entry): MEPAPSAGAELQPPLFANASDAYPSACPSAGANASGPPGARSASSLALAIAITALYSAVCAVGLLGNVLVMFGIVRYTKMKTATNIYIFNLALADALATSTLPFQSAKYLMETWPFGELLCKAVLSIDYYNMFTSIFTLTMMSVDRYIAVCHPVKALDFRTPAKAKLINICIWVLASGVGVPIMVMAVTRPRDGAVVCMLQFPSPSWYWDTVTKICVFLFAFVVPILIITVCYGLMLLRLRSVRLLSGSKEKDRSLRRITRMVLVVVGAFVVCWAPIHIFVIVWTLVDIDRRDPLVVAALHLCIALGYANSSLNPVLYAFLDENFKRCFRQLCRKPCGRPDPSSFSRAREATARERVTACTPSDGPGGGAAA
Sequence of Prostaglandin G/H synthase 1 (P23219 whole entry): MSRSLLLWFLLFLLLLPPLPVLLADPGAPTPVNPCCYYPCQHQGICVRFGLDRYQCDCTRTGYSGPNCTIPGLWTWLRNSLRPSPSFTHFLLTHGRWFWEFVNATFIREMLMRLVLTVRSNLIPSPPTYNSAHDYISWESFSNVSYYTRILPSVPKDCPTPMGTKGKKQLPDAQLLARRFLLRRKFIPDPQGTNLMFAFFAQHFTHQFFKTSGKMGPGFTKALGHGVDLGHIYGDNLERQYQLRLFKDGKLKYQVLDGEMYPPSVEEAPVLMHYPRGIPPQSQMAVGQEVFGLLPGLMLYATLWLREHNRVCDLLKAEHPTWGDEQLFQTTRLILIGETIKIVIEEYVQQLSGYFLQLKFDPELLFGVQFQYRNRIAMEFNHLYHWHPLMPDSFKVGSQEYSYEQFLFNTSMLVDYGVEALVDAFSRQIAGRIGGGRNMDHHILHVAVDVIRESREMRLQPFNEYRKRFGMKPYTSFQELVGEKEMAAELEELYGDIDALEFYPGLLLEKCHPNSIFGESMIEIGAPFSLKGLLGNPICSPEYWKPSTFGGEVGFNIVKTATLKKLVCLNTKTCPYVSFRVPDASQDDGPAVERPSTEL

Turning to `O=C(O)c1cn(C2CC2)c2cc(N3CCNCC3)c(F)cc2c1=O` [CIPROFLOXACIN], the IC50 result in [1], in [2], in test [3], in test [4], in test [5] and in test [6] was “Not Active” throughout. The half-inhibitory concentration (IC50) entry in test [7], in test [8], in [9], in [10] (cho-k1) and in test [11] was “Not Active” in each case. In test [6], the Ki entry is listed as “Not Active”.

Turning to `CN(C)CCCC1(c2ccc(F)cc2)OCc2cc(C#N)ccc21` (stereo not drawn) [CITALOPRAM], the IC50 result in test [1], in test [2], in test [3], in [4], in test [5] and in test [6] was “Not Active” throughout. Also, the IC50 result in test [7] was “Not Active”; in test [8] it was “Not Active”; in [9] it was “Not Active”; in test [10] (read-out: IC50), 1840 nM; in [11] (read-out: IC50), 1760 nM. Further, the figures for the Ki result in [6], in [10] (read-out: Ki) and in test [11] (read-out: Ki) were “Not Active”, 1170 nM and 711 nM, respectively.

Take `C[C@]12CCC(=O)C=C1CC[C@@H]1[C@@H]2C(=O)C[C@@]2(C)[C@H]1CC[C@]2(O)C(=O)CO` [CORTISONE]: the IC50 entry in [1], in test [2], in test [3], in test [4], in test [5] and in [6] was “Not Active” each time. Further, the IC50 entry in test [7], in test [8], in test [9], in test [10] (cho-k1) and in [11] was “Not Active” in each case. Also, the Ki result in test [6] is given as “Not Active”.

Turning to `CC1=Nc2ccc(Cl)cc2S(=O)(=O)N1` [DIAZOXIDE], the IC50 entry in test [1], in [2], in test [3], in [4], in test [5] and in [6] was “Not Active” throughout. Besides, the IC50 entry in [7], in [8], in test [9], in test [10] (cho-k1) and in [11] was “Not Active” in each case. Besides, the Ki entry in [6] is recorded as “Not Active”.

On to `CC(=O)OCC(=O)[C@@]1(OC(C)=O)[C@@H](C)C[C@H]2[C@@H]3C[C@H](F)C4=CC(=O)C=C[C@]4(C)[C@@]3(F)[C@@H](O)C[C@@]21C` [DIFLORASONE DIACETATE], for which the IC50 entry in test [1], in [2], in [3], in test [4], in test [5] and in test [6] was “Not Active” each time. The IC50 result in test [7], in test [8], in test [9], in [10] (cho-k1) and in [11] was “Not Active” throughout. In addition, the Ki entry in test [6] is “Not Active”.

For `COc1ccc([C@@H]2Sc3ccccc3N(CCN(C)C)C(=O)[C@@H]2OC(C)=O)cc1` [DILTIAZEM], the IC50 result in [1], in test [2], in test [3], in [4], in [5] and in test [6] was “Not Active” throughout. The IC50 entry in [7], in [8], in [9], in test [10] (cho-k1) and in test [11] was “Not Active” throughout. In addition, the Ki result in test [6] is “Not Active”.

Consider `CCc1ccc(C(=O)C(C)CN2CCCCC2)cc1` (stereo not drawn) [EPERISONE], for which the IC50 result in [1], in test [2], in test [3], in test [4], in test [5] and in test [6] was “Not Active” each time. Further, the IC50 result in test [7], in [8], in test [9], in [10] (cho-k1) and in test [11] was “Not Active” in each case. Moreover, the Ki result in [6] was “Not Active”.

Turning to `C=C1CC[C@H](O)C/C1=C/C=C1\CCC[C@]2(C)[C@@H]([C@H](C)/C=C/[C@H](C)C(C)C)CC[C@@H]12` [ERGOCALCIFEROL], the IC50 entry in test [1], in test [2], in test [3], in test [4], in test [5] and in test [6] was “Not Active” each time. Moreover, the IC50 result in test [7], in test [8], in test [9], in test [10] (cho-k1) and in [11] was “Not Active” each time. For the same compound, the Ki result in test [6] is “Not Active”.
